Data as given in patent US20240251792A1, “WEED CONTROL METHOD” (SYNGENTA CROP PROTECTION AG, priority 2021, published 2024).

Key:
Assay type in all cases: in vivo
LOLPE [1] = experiment: Biological efficacy, pre-emergence glasshouse test (Table 2); details: 1000 g/ha, after 12 days
Protocol: (§1) Seeds of a variety of test species were shown in unsterilised compost in small pots. After cultivation for one day (pre-emergence) or seven days (post-emergence) in controlled conditions in the glasshouse (at 24/16° C., day/night; 14 hours light; 65% humidity) the plants were sprayed with 1 mg of the active ingredient, formulated in 466 μl of a acetone/water/Tween 20 (49.75:49.75:0.5) solution, which is equivalent to 1000 g/ha. Once the foliage was dry, the pots were kept in the glasshouse (at 24/16° C., day/night; 14 hours light; 65% humidity), and were watered twice daily. After 12 days the test was evaluated and scored (100=total damage to plant, 0=no damage to plant).

STEME [2] = experiment: as above; details: 1000 g/ha, after 12 days
Protocol: as §1

AMARE [3] = experiment: as above; details: 1000 g/ha, after 12 days
Protocol: as §1

DIGSA [4] = experiment: as above; details: 1000 g/ha, after 12 days
Protocol: as §1

LOLPE [5] = experiment: Biological efficacy, post-emergence glasshouse test (Table 2); details: 1000 g/ha, after 12 days
Protocol: as §1

STEME [6] = experiment: as above; details: 1000 g/ha, after 12 days
Protocol: as §1

AMARE [7] = experiment: as above; details: 1000 g/ha, after 12 days
Protocol: as §1

DIGSA [8] = experiment: as above; details: 1000 g/ha, after 12 days
Protocol: as §1

weeds and/or crops = experiment: Post-emergence biological efficacy (Table 4); details: 1000 g/ha, evaluated after 13 days
Summary of the method: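 Weeds and crops were grown 14 days in a glasshouse, then sprayed post-emergence with compound formulated in acetone/F50 and diluted in 0.2% Genapol X080 to the final dose. Damage was scored after 13 days on a 0–100 scale, where 100 is total damage.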

IPOHE = experiment: Pre-emergence biological efficacy (Table 3); details: 1000 g/ha, after 13 days
Summary of the method: (§2)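 Pre-emergence spray applied one day post-sowing; aqueous solution from 50 g/l AMA-based formulation in 0.2% Genapol X080. Evaluation at 13 days, 0 = no damage, 100 = total damage.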

STEME [9] = experiment: Pre-emergence biological efficacy (Table 3); details: 1000 g/ha, after 13 days
Summary of the method: as §2

AMARE [10] = experiment: Pre-emergence biological efficacy (Table 3); details: 1000 g/ha, after 13 days
Summary of the method: as §2

ABUTH = experiment: Pre-emergence biological efficacy (Table 3); details: 1000 g/ha, after 13 days
Summary of the method: as §2

ZEAMX = experiment: Pre-emergence biological efficacy (Table 3); details: 1000 g/ha, after 13 days
Summary of the method: as §2

Structure (SMILES) | score (100=total damage to plant, 0=no damage to plant) (LOLPE [1]) | score (100=total damage to plant, 0=no damage to plant) (STEME [2]) | score (100=total damage to plant, 0=no damage to plant) (AMARE [3]) | score (100=total damage to plant, 0=no damage to plant) (DIGSA [4]) | score (100=total damage to plant, 0=no damage to plant) (LOLPE [5]) | score (100=total damage to plant, 0=no damage to plant) (STEME [6]) | score (100=total damage to plant, 0=no damage to plant) (AMARE [7]) | score (100=total damage to plant, 0=no damage to plant) (DIGSA [8]) | damage to plant ABUTH (100=total damage; 0=no damage) (weeds and/or crops; ABUTH) | damage to plant AMARE (100=total damage; 0=no damage) (weeds and/or crops; AMARE) | damage to plant IPOHE (100=total damage; 0=no damage) (weeds and/or crops; IPOHE) | damage to plant STEME (100=total damage; 0=no damage) (weeds and/or crops; STEME) | damage to plant ZEAMX (100=total damage; 0=no damage) (weeds and/or crops; ZEAMX) | evaluation (100=total damage to plant; 0=no damage to plant) (IPOHE) | evaluation (100=total damage to plant; 0=no damage to plant) (STEME [9]) | evaluation (100=total damage to plant; 0=no damage to plant) (AMARE [10]) | evaluation (100=total damage to plant; 0=no damage to plant) (ABUTH) | evaluation (100=total damage to plant; 0=no damage to plant) (ZEAMX)
COc1cc(C(F)(F)C(=O)O)ccc1C [Compound 1-7] | 0 | 30 | 0 | 0 | 0 | 70 | 40 | 0 | – | – | – | – | – | – | – | – | – | –
Nc1cccc(C(F)(F)C(=O)O)c1 [Compound 1-8, 2-(3-Aminophenyl)-2,2-difluoro-acetic acid] | 0 | 0 | 0 | 0 | 0 | 10 | 10 | 0 | – | – | – | – | – | – | – | – | – | –
O=C(O)C(F)(F)c1ccc(OC(F)(F)F)c(Br)c1 [Compound 1-20] | 0 | 0 | 30 | 0 | 0 | 0 | 70 | 30 | – | – | – | – | – | – | – | – | – | –
O=C(O)C(F)(F)c1ccc(OC(F)F)cc1F [Compound 1-32] | 0 | 0 | 0 | 0 | 0 | 40 | 30 | 0 | – | – | – | – | – | – | – | – | – | –
N#Cc1cccc(C(F)(F)C(=O)O)c1 [Compound 1-186] | 0 | 10 | 10 | 0 | 0 | 30 | 60 | 0 | – | – | – | – | – | – | – | – | – | –
CCc1ccccc1C(F)(F)C(=O)O [Compound 1-263] | 0 | 0 | 40 | 0 | 0 | 50 | 50 | 0 | – | – | – | – | – | – | – | – | – | –
CCc1c(Cl)cccc1C(F)(F)C(=O)O [Compound 1-275, 2-(3-Chloro-2-ethyl-phenyl)-2,2-difluoro-acetic acid] | 60 | 100 | 100 | 80 | 0 | 80 | 90 | 30 | – | – | – | – | – | – | – | – | – | –
C#Cc1c(Cl)cccc1C(F)(F)C(=O)O [Compound 1-291, 2-(3-Chloro-2-ethynyl-phenyl)-2,2-difluoro-acetic acid] | 80 | 100 | 90 | 90 | 0 | 80 | 100 | 70 | – | – | – | – | – | – | – | – | – | –
COc1ccc(F)cc1C(F)(F)C(=O)O [Compound 1-304] | 0 | 0 | 0 | 0 | 20 | 20 | 70 | 20 | – | – | – | – | – | – | – | – | – | –
COc1ccc(Cl)cc1C(F)(F)C(=O)O [Compound 1-305] | 0 | 0 | 0 | 0 | 0 | 0 | 50 | 0 | – | – | – | – | – | – | – | – | – | –
CCOc1ccccc1C(F)(F)C(=O)O [Compound 1-328] | 0 | 40 | 50 | 0 | 0 | 60 | 80 | 0 | – | – | – | – | – | – | – | – | – | –
CC(C)Oc1ccccc1C(F)(F)C(=O)O [Compound 1-341] | 10 | 30 | 30 | 0 | 10 | 60 | 80 | 20 | – | – | – | – | – | – | – | – | – | –
COc1cc(F)c(C(F)(F)C(=O)O)cc1Cl.N [Compound 7-31, Ammonium;2-(5-chloro-2-fluoro-4-methoxy-phenyl)-2,2-difluoro-acetate] | 0 | 0 | 0 | 0 | 0 | 0 | 100 | 0 | 0 | 0 | 0 | 0 | 20 | 0 | 0 | 0 | 0 | 0
